A word on the GI50: it is the concentration at which growth is held to half of that of the control. As a reminder, the TGI is the concentration at which net growth stops. Read a high TGI as lower sensitivity of the cells.

Molecules are shown by their SMILES. “And” between values parts separate entries of the source, which are not always exact repeats. Identical values can stand only once.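 1) Cells in 96-well plates. 2) Compound, 48 h, 5 concentrations. 3) Linear interpolation between surrounding doses. 4) Unreached endpoint = highest concentration. At the GI50, growth is halved. TGI: concentration producing complete growth inhibition.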 Where only a bound is given, the exact number is not on record here.

Test systems include EKVX NSCLC; RPMI-8226 leukemia; SK-OV-3 ovarian; LOX IMVI melanoma; SK-MEL-28 melanoma; OVCAR-5 ovarian; 786-0 renal; SF-295 CNS; SK-MEL-5 melanoma; SK-MEL-2 melanoma.
Holding throughout (assay): DTP human tumour cell line panel, 48 h

For the molecule `CC(C)n1c(/C=C/[C@@H](O)C[C@@H](O)CC(=O)O)c(-c2ccc(F)cc2)c2ccccc21`, the GI50 was 16.8 µM in the test on EKVX NSCLC; 5.55 µM and 10.3 µM with RPMI-8226 leukemia; 19.8 µM and > 51.3 µM in the test with SK-OV-3 ovarian; 0.465 µM and 0.653 µM with LOX IMVI melanoma; 12.2 µM and 15.4 µM with SK-MEL-28 melanoma; 18.5 µM and 26.6 µM in the test on OVCAR-5 ovarian. Moreover, the GI50 is 4.71 µM and 5.31 µM in the test on 786-0 renal; 0.361 µM and 0.429 µM in the test on SF-295 CNS; 3.94 µM and 4.9 µM in the test on SK-MEL-5 melanoma; 1.51 µM and 0.983 µM in the test on SK-MEL-2 melanoma. Besides, the TGI is over 100 µM in the test with EKVX NSCLC; over 100 µM in the test with RPMI-8226 leukemia; over 100 µM in the test on SK-OV-3 ovarian; > 40.1 µM and 5.62 µM in the test with LOX IMVI melanoma; 53.9 µM and > 86.3 µM in the test on SK-MEL-28 melanoma; over 100 µM in the test on OVCAR-5 ovarian. Further, the TGI in the test on 786-0 renal was over 100 µM; in the test on SK-MEL-5 melanoma, 35.4 µM and 27 µM; with SK-MEL-2 melanoma it was 30.9 µM and 22.3 µM.

Regarding `CSc1ccc(C2=Nn3c(nnc3-c3ccc(F)c(Cl)c3)SC2)cc1`, the GI50 is 42.1 µM with EKVX NSCLC; 18.6 µM with RPMI-8226 leukemia; 13.5 µM in the test on SK-OV-3 ovarian; 10.8 µM in the test on LOX IMVI melanoma; 34.2 µM with SK-MEL-28 melanoma; 39.5 µM in the test on OVCAR-5 ovarian. In addition, the GI50 with 786-0 renal is 13.5 µM; with SF-295 CNS it was 3.57 µM; in the test on SK-MEL-5 melanoma, 11.9 µM; in the test with SK-MEL-2 melanoma, 4.77 µM. Moreover, the TGI with EKVX NSCLC was over 100 µM; in the test with RPMI-8226 leukemia, over 100 µM; in the test on SK-OV-3 ovarian, 41.9 µM; in the test on LOX IMVI melanoma it was 43.1 µM; in the test with SK-MEL-28 melanoma it was over 100 µM; in the test with OVCAR-5 ovarian it was over 100 µM. Further, the concentration for total growth inhibition (TGI) with 786-0 renal came to 32 µM; with SF-295 CNS, 17.5 µM; in the test with SK-MEL-5 melanoma, 52.7 µM; in the test with SK-MEL-2 melanoma, 18 µM.

With `CC(=O)c1cccc(N(/C=C/C(=O)C(F)(F)F)CC(=O)c2ccc(Cl)cc2)c1`, the GI50 in the test with EKVX NSCLC, in the test on RPMI-8226 leukemia, with SK-OV-3 ovarian, in the test on LOX IMVI melanoma, in the test with SK-MEL-28 melanoma and with OVCAR-5 ovarian was over 100 µM throughout. Moreover, the GI50 with 786-0 renal, with SF-295 CNS, in the test on SK-MEL-5 melanoma and with SK-MEL-2 melanoma was over 100 µM throughout. Besides, the TGI in the test on EKVX NSCLC, in the test with RPMI-8226 leukemia, with SK-OV-3 ovarian, with LOX IMVI melanoma, in the test on SK-MEL-28 melanoma and in the test on OVCAR-5 ovarian was over 100 µM throughout. The TGI in the test with 786-0 renal, in the test on SF-295 CNS, in the test on SK-MEL-5 melanoma and in the test on SK-MEL-2 melanoma was over 100 µM throughout.

Values taken from PubChem BioAssay (NCI).
